{
  "source": "patent US7795215B2",
  "about": "“MNTF peptides and compositions and methods of use” (Genervon Biopharmaceuticals LLC, priority 2003, dated 2010)",
  "key": {"[1]": {"tested_on": "rat femoral nerve", "test": "Femoral nerve model, MNTF pump experiments (Preferential Motor Reinnervation)", "format": "in vivo", "method": "The specificity of motor axon regeneration was investigated in the rat femoral nerve. Proximally, at the site of nerve transection and suture, axons that contribute to both cutaneous and muscle branches intermingle throughout the nerve. As these axons regenerate, they have equal access to neighboring motor and sensory Schwann cell tubes in the distal nerve stump. This assures an element of “choice” at the axonal level. Distally, where the specificity of regeneration is assessed, axons are segregated into terminal cutaneous and muscle branches. Motor axons are normally found only in the muscle branch, so any motor reinnervation of the cutaneous branch represents a pathfinding failure. The specificity of axon regeneration is evaluated by simultaneous application of horseradish peroxidase (HRP) to one distal femoral branch and fluoro-gold (FG) to the other. Motor-axon regeneration is random at 3 weeks, but the number of correct projections to muscle increases dramatically at later times. Many neurons initially contain both tracers, and thus project collaterals to both cutaneous and muscle branches. The number of these double-labeled neurons decreases with time. Motor axon collaterals are thus pruned from the cutaneous branch, increasing the number of correct projections to muscle at the expense of double-labeled neurons. A specific interaction thus occurs between regenerating motor axons and muscle and/or muscle nerve that we have termed Preferential Motor Reinnervation (PMR).\nIn preliminary experiments we attempted to modify motor axon regeneration in the femoral nerve by pumping MNTF 33mer at 10^−4 M onto the repair site, using an Alzet osmotic pump which discharges for at least 2 weeks. The output of the pump was sewn to muscle adjacent to the nerve repair, so that the nerve wound would be continuously bathed with the factor. Reinnervation of the distal femoral cutaneous and muscle branches was quantified with tracers as described above.\nIn a follow-up experiment MNTF 33mer was administered to eight transected and sutured rat femoral nerves at 10^−4 M, essentially as described above. Controls were a group of six nerves that underwent routine suture with pumps delivering saline but no MNTF. A mean of 100 motoneurons projected correctly in the six controls, whereas a mean of 87 motoneurons projected incorrectly to skin.\nTo determine if a truncated MNTF peptide could be substituted for MNTF 33mer, subsequent experiments were performed, essentially as described above, using the MNTF 6mer FSRYAR, at 10^−4 M (n=8), 10^−5 M (n=8) and 10^−6 M (n=8), with a total of 22 saline controls for comparison. […] Thus the 6mer is capable of promoting selective reinnervation of target muscles in a manner similar to the MNTF1 33mer."}, "[2]": {"tested_on": "VSC4.1 cells, a motor neuron/neuroblastoma cell hybrid", "test": "VSC4.1 cell proliferation assay (BrdU)", "format": "cell-based", "conditions": "for Biological Function / OD (optimal dose): VSC4.1 proliferation; for maximal increase in cell proliferation: % increase over control", "method": "Studies of proliferation were performed in 96 well plates utilizing a cell proliferation assay kit from Roche Diagnostics GmbH (Mannheim, Germany). VSC4.1 cells, a motor neuron/neuroblastoma cell hybrid, were cultured in DMEM with 2% FBS containing either no MNTF or a dose range of MNTF from 10^−8 to 10^−5 g/ml. Each treatment was applied in triplicate wells. The cells were cultured for 21 hours and 5-bromo-2′-deoxyuridine (BrdU) from the assay kit was added to each well. After BrdU labeling for 3 hours, the cells were washed, fixed and dried. The cells were then fixed and the DNA denatured to improve access for the subsequent antibody binding. POD-labeled mouse monoclonal anti-BrdU antibody from the assay kit was applied for 2 hours, followed by a wash. The assay was quantitated by adding the colorimetric assay solution (tetramethyl benzidine) and reading at 450 nm on a Wallac Vector 2 plate reader. Cells in the treatment groups were quantitated by comparing to wells plated with a gradient of cells from 0 to 20,000 cells/well on the same plate. Data is expressed as % of control to allow for variability from plate to plate.\nAdditional cell proliferation assays, conducted essentially as described above, were performed to compare the effects of several GLP grade MNTF peptides.\nFurther cell proliferation studies were performed, essentially as described above, to test the response of the motor neuron/neuroblastoma cells to three new preparations of MNTF. The MNTF preparations utilized for these assays were: […]"}, "[3]": {"conditions": "follow-up experiment, 10^−4 M, eight nerves, saline pump controls"}, "[4]": {"conditions": "preliminary experiments, 10^−4 M by Alzet osmotic pump, three weeks, three animals"}, "[5]": {"conditions": "earliest studies, FIG. 2, listed as GLP grade MNTF 33mer"}, "[6]": {"conditions": "earliest studies, FIG. 2, listed as MNTF 33mer (research grade)"}},
  "note": "Entries after “also recorded” stand apart in the source; their conditions may differ.",
  "data": [
    {"substance": "33mer: 33 amino acid MNTF1-F6 fragment, SEQ ID NO:1, made by solid phase synthesis; positive control in cell proliferation assays (LGTFWGDTLNCWMLSAFSRYARCLAEGHDGPTQ) [reference compound]", "values": [
      {"measurement": "correct projections of motoneurons to muscle (mean)", "setting": "[1]; [3]", "result": 173},
      {"measurement": "incorrect projections of motoneurons to skin (mean)", "setting": "[1]; [3]", "result": 59},
      {"measurement": "correct projections of motoneurons to muscle (mean)", "setting": "[1]; [4]", "result": 210},
      {"measurement": "incorrect projections of motoneurons to skin (mean)", "setting": "[1]; [4]", "result": 31},
      {"measurement": "Biological Function", "setting": "[2]; assay set Aug. 4, 2003", "result": "Effective"},
      {"measurement": "OD (optimal dose)", "setting": "[2]; assay set Aug. 4, 2003", "result": 0.01, "unit": "µg/mL"},
      {"measurement": "Biological Function", "setting": "[2]; assay set Mar. 28, 2003", "result": "Effective"},
      {"measurement": "OD (optimal dose)", "setting": "[2]; assay set Mar. 28, 2003, listed as 33mer GLPg, L", "result": 10, "unit": "µg/mL"},
      {"measurement": "OD (optimal dose)", "setting": "[2]; assay set Mar. 28, 2003, listed as 33mer Rg, L", "result": 100, "unit": "µg/mL"},
      {"measurement": "Biological Function", "setting": "[2]; assay set Oct. 27, 2002", "result": "Effective"},
      {"measurement": "OD (optimal dose)", "setting": "[2]; assay set Oct. 27, 2002, listed as 33mer GLPg, L", "result": 0.1, "unit": "µg/mL"},
      {"measurement": "OD (optimal dose)", "setting": "[2]; assay set Oct. 27, 2002, listed as 33mer Rg, L", "result": 10, "unit": "µg/mL"},
      {"measurement": "maximal increase in cell proliferation", "setting": "[2]; [5]", "result": 34.3, "unit": "%"},
      {"measurement": "maximal increase in cell proliferation", "setting": "[2]; [6]", "result": 31.7, "unit": "%"},
      {"measurement": "relative effectiveness in proliferation assay (words)", "setting": "[2]; earliest studies, FIG. 2, listed as GLP grade 33mer", "result": "most biologically active"},
      {"measurement": "dose of maximal response", "setting": "[2]; [5]", "result": 100, "unit": "ng/mL"},
      {"measurement": "relative effectiveness in proliferation assay (words)", "setting": "[2]; [5]", "result": "most effective in this assay"},
      {"measurement": "dose of maximal response", "setting": "[2]; [6]", "result": 10000, "unit": "ng/mL"},
      {"measurement": "effect on proliferation of motor neuron/neuroblastoma cells (summary in description)", "setting": "[2]; in vitro", "result": "effective at increasing the proliferation of motoneuron/neuroblastoma cells"},
      {"measurement": "peak fold response in proliferation", "setting": "[2]; second set, FIG. 3, at 10 μg/ml", "result": 3, "unit": "fold"},
      {"measurement": "fold increase in proliferation", "setting": "[2]; second set, FIG. 3, highest dose", "result": "~3", "unit": "fold"},
      {"measurement": "relative effectiveness in proliferation assay (words)", "setting": "[2]; third set, FIG. 4", "result": "significantly (p<0.05) stimulated proliferation over control; also recorded: nearly as well as the 10mer at low doses; also recorded: clearly superior to the 21mer"}
    ]}
  ]
}
